{"source": "patent US10729723B2", "about": "“Method for inducing cell reprogramming, and method for producing pluripotent cells” (NATIONAL UNIVERSITY CORPORATION KUMAMOTO UNIVERSITY, priority 2014, dated 2020)", "key": {"HDF cells [1]": {"tested_on": "HDF cells", "experiment": "influence of endocytosis inhibitor on cell-cluster formation by Lactobacillus 70S ribosome fraction", "type": "cell-based, Human", "details": "70S ribosome fraction 0.5 μg/50 μl/well, HDF cells 20,000 cells, cultured 2 days", "description": "(§1) In the presence of an endocytosis inhibitor shown in the following Table, the cell-cluster forming ability was examined using the Lactobacillus 70S ribosome fraction prepared in Example 6. The 70S ribosome fraction was placed into a 96-well plate (0.5 μg/50 μl/well), HDF cells (20,000 cells/100 μl) were added, and each inhibitor (50 μl) was added. The cells were cultured in a CO2 incubator for 2 days, and the number of the formed cell-clusters was measured. The inhibitor was used with the concentration shown in Table being the standard concentration (concentration “5” in FIG. 9). Accordingly, for example, in the case of CP, the concentration “5” is 10 μM, and the concentration “10” is 20 μM. In addition, the MTT assay (measurement of cell death by colorimetric method) was conducted."}, "HDF cells [2]": {"tested_on": "HDF cells", "experiment": "MTT assay (measurement of cell death by colorimetric method)", "type": "cell-based", "details": "HDF cells with 70S ribosome fraction, 2 days", "description": "as §1"}}}
{"molecule": "C[C@@H]1[C@H](O)[C@@H](C)/C=C/C=C/CC/C=C/C=C/C=C/C=C/C(O[C@H]2O[C@H](C)[C@@H](O)[C@H](N)[C@@H]2O)CC2O[C@](O)(CC(O)C(O)CCC(O)CC(O)CC(O)CC(=O)O[C@H]1C)CC(O)C2C(=O)O", "note": "(stereo partly shown) [NY, Nystatin]", "values": [{"measurement": "number of the formed cell-clusters in the presence of inhibitor", "setting": "HDF cells [1]", "value": "decreased"}, {"measurement": "toxicity of inhibitor, considered cause of decreased cell-cluster number (MTT assay, cell survival ratio)", "setting": "HDF cells [2]", "value": "toxicity"}]}
{"molecule": "Methyl-β-cyclodextrin [MC]", "values": [{"measurement": "number of the formed cell-clusters in the presence of inhibitor", "setting": "HDF cells [1]", "value": "increased concentration-dependently"}]}
{"molecule": "CN(C)CCCN1c2ccccc2Sc2ccc(Cl)cc21", "note": "[CP, Chlorpromazine]", "values": [{"measurement": "number of the formed cell-clusters in the presence of inhibitor", "setting": "HDF cells [1]", "value": "decreased"}]}
